Reference: article PMC3229523, “Identification of Lactoferricin B Intracellular Targets Using an Escherichia coli Proteome Chip” (PLoS ONE, 2011)
“Also recorded” adds a separate entry of the source. Ends that are not written are not given here. * marks the point of attachment. Biotin = O=C1N[C@H]2[C@H](CS[C@H]2CCCCC(=O)*)N1

Experiments:
NrdB = test: E. coli proteome chip assay, NrdB; assay type: binding, E. coli K-12; conditions: NrdB not in the top 153 proteins; 10 nM biotinylated LfcinB
Protocol: To fabricate the proteome chips, E. coli K-12 proteins were expressed and purified in a high-throughput fashion. The procedure was modified from Chen et al.. Briefly, E. coli protein expression clones fused with a 6×-His tag, provided by Dr. Mori, were first incubated with glass beads (Biospec Products Inc.) in 2× LB medium containing 30 µg/ml chloramphenicol in 96 DeepWell™ plates (Nunc) at 37°C overnight. The overnight cultures were then diluted with 2× LB that contains 30 µg/ml chloramphenicol to the OD595 value of 0.1. When the cells grew to an OD595 value of 0.7–0.9, 500 µM of isopropyl β-D-thiogalactoside (IPTG) was added to induce protein expression at 37°C for ∼3.5 h. The cultures were then harvested by centrifugation at 3220 g for 5 min at 4°C, and the pellets were stored at −80°C before purification. […]
For image processing of chip assay results, Genepix Pro 6.0 was used to align the protein spot of each individual protein and then all aligned protein image signals were exported as a text file. The text file was analyzed by ProCAT [17], a signal normalization method. The relative ability of LfcinB to bind to each protein was estimated by the ratio of the fluorescence intensity of LfcinB to the fluorescence intensity of an anti-His antibody after the normalization. […]

E. coli K-12 MG1655 = test: E. coli growth inhibition (growth curves, OD595); assay type: cell-based; conditions: 22.4 µM, approx. 10^7 CFU/ml, LB medium, 37°C with shaking, OD595 every 20 min for 7 h 20 min, PBS negative control, Figure 2
Protocol: The E. coli K-12 MG1655 strain was first inoculated into LB medium and incubated at 37°C with shaking for 16 h. After incubation, the culture was diluted to approximately 10^7 CFU/ml using LB medium. Then, 22.4 µM of N-terminal biotinylated LfcinB (Kelowna Inc.), LfcinB (Kelowna Inc.) or biotin (Thermo) were individually added to the diluted cultures in a 96-well plate. PBS was used as a negative control. Finally, each compound or PBS with E. coli was incubated at 37°C with shaking and the growth curves were observed by measuring the OD595 value every 20 min for 7 h 20 min in a microplate reader (Synergy 2, BioTek®).

[1] = system: other 15 knockout strains; test: Knockout assay, other 15 knockout strains; assay type: cell-based, E. coli K-12; conditions: 32 µM LfcinB, LB medium, 37°C
Protocol: The E. coli K-12 BW25113 (isogenic parent) strain and the 16 knockout strains were obtained from the E. coli Genetic Resources at the Coli Genetic Stock Center (CGSC) at Yale University. The strains were inoculated into LB medium, and incubated at 37°C with shaking. After 16 h of incubation, the cultures were diluted to approximately 10^7 CFU/ml with LB medium. Thirty-two µM of LfcinB were then added to the cultures in a 96-well plate. PBS was used as a negative control. Cultures with LfcinB or PBS were then incubated at 37°C with shaking in a microplate reader and the growth was observed by measuring the OD595 value every 20 min for 7 h 20 min.

“Lactoferricin B (Biotin-FKCRRWQWRMKKLGAPSITCVRRAF; ends and bridges not checked) [LfcinB]” was tested, and the “binding affinity in chip assays” value (NrdB) was “strong binding affinity with LfcinB”, the “growth curves / inhibition of E. coli growth” value (E. coli K-12 MG1655) was “exhibited the same inhibition of E. coli growth; also recorded: exhibit the same antibacterial activity” and the “growth with LfcinB” value [1] was “the growth was inhibited by LfcinB”.
